Experimental data: PMC10447463, “Data-mining unveils structure–property–activity correlation of viral infectivity enhancing self-assembling peptides” (Nature Communications, 2023)
Where two headings read alike, the source gives them in different places.

What was measured:
[1] = tested on: HIV-1 infection of TZM-bl cells; assay: HIV-1 infectivity enhancement assay, β-galactosidase luminescence; type: cell-based; details: for Rel-EFC: infection relative to EF-C (QCKIKQIINMWQ = 1); for Log10 Infection Rel EFC: log10 of infection relative to EF-C; for Log Infectivity: Log10 infection relative to EF-C, asymmetric std dev errors; for Log10 Infection Rel EF-C: HIV-1 infection of TZM-bl cells; for Log10 of Rel to EFC (Feb2021): Log10 of infection relative to EF-C, all peptides of FigS16; for Abs. Inf.: β-galactosidase luminescence
[2] = β-sheet content by ATR-FT-IR; type: physicochemical; details: for b -sheet / %: Fig. S7 panel A, β-sheet content by ATR-FT-IR
Procedure, shortened: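 Using ATR FT-IR (diamond, 2 cm^-1, 64 scans), lyophilized 1 mg/mL PNF samples gave β-sheet content by a published calculation. Fluorescamine signals of 3 kDa filtrates relative to unfiltered samples, normalised to DMSO as 1, yielded CR in percent.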

[3] = Zeta-potential measurement; type: physicochemical
Procedure, shortened: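 Peptides diluted from DMSO stock into PBS pH 7.4 to 1 mg/mL and aged 1 d at RT, then diluted into 1 mM aqueous KCl. Zeta potential derived from electrophoretic mobility via Smoluchowski; triplicates, averaged over two independent experiments.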

[4] = Turbidity, derived count rate of scattered light; type: physicochemical; details: for Count Rate / kcps: derived count rate of scattered light at 633 nm, 173°, from zeta-potential measurement, 0.1 mg/mL in 1 mM KCl after 1 d at 1 mg/mL in PBS, turbidity / microscopic aggregation, mean of triplicate
Procedure, shortened: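 Samples: 1 mg/mL in PBS pH 7.4 (from DMSO), 1 d at RT, then diluted in 1 mM KCl immediately before measurement. Triplicates, two independent runs averaged.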

[5] = Turbidity, derived count rate of scattered light; type: physicochemical; details: for Count Rate: derived count rate of scattered light (turbidity); for Log10 Count Rate: turbidity, derived count rate of scattered light, data of Figure 2D
[6] = Fig. S7 panel A (plotted against β-sheet content), TZM-bl cells
[7] = Log10 of infection rate relative to EF-C, Figure 3A source data
[8] = infection rate relative to EF-C, log10, data of Figure 2D
[9] = infection rate relative to EF-C, log10, source data of Figure 2C
[10] = zeta-potential of peptide, source data of Figure 2C
[11] = zeta-potential of the peptide assemblies, mean, Figure 3A source data
[12] = Log10 of derived count rate of scattered light (turbidity)
[13] = log10 of derived count rate of scattered light (turbidity)
[14] = turbidity, Log10 of derived count rate of scattered light, Figure 3A source data
[15] = Fig. S7 panel B (plotted against CR), rounded to two decimals, TZM-bl cells
[16] = zeta potential of peptide assemblies

| Substance | Rel-EFC ([1]; 1.3 µM peptide) | Log10 Infection Rel EFC ([1]; 1.3 µM peptide) | Log Infectivity [1, 6] | Log10 Infection Rel EF-C [1, 7] | Log10 Infection Rel EF-C [1, 8] | Log10 Infection Rel EF-C [1, 9] | Log10 of Rel to EFC (Feb2021) [1] | b -sheet / % [2] | Zeta-Potential / mV [3, 10] | Zeta-Potential / mV [3, 11] | Log10 Count Rate [4, 12] | Count Rate / kcps [4] | Log10 Count Rate [4, 13] | Log10 Count Rate [4, 14] | Count Rate [5] | Log10 Count Rate [5] | Zeta-Pot. [3, 16] | further results |
| --- | --- | --- | --- | --- | --- | --- | --- | --- | --- | --- | --- | --- | --- | --- | --- | --- | --- | --- |
| KIKIQIW | 0,14 | -0,85 | -0.8533 | -0.85 | -0.8533 | -0.8533 | -0.85 | 49.1721% | 11.255 mV | 12.5 mV | 2.161 | 145 kcps | 2.161 | 2.161 | 144.9 | 2.161 |  | Abs. Inf. ([1]; absolute HIV-1 infection signal, TZM-bl cells): 4280; Zeta-Pot. [3]: 12.5 |
| KIKQII | 0 | -2,31 | -2.308 | -2.31 | -2.308 | -2.308 |  | 38.67% | -6.459 mV | -12.67 mV | 2.086 | 122 kcps | 2.086 | 2.086 | 122 | 2.086 | -12.67 | Log Infectivity [1, 15]: -2.31 |
| KLKLKLQL | 0,1 | -1,01 | -1.009 | -1.01 | -1.009 | -1.009 |  | 42.3363% | 8.477 mV | 8.39 mV | 1.632 | 43 kcps | 1.632 | 1.632 | 42.87 | 1.632 | 8.39 |  |
| KLKLQLL | 0,01 | -2,16 | -2.156 | -2.16 | -2.156 | -2.156 |  | 39.56% | -3.1875 mV | -4.93 mV | 1.861 | 73 kcps | 1.861 | 1.861 | 72.67 | 1.861 | -4.93 |  |
| KVKVQVV | 0,01 | -2,04 | -2.04 | -2.04 | -2.04 | -2.04 |  | 45.1% | -4.675 mV | -7.92 mV | 1.443 | 28 kcps | 1.443 | 1.443 | 27.73 | 1.443 | -7.92 |  |
| KVKVQVVV | 0,04 | -1,46 | -1.455 | -1.46 | -1.455 | -1.455 |  | 45.8125% | 1.657 mV | 0.15 mV | 2.213 | 163 kcps | 2.213 | 2.213 | 163.1 | 2.213 | 0.147 |  |
| MKIKIQINM | 0,27 | -0,56 | -0.5635 | -0.56 | -0.5635 | -0.5635 | -0.56 | 38.6306% | 9.332 mV | 9.13 mV | 2.9918 | 981 kcps | 2.9918 | 2.9918 | 981.3 | 2.9918 | 9.13 |  |
| MKIKIQINMWQ | 0,42 | -0,38 | -0.378 | -0.38 | -0.378 | -0.378 | -0.38 | 39.2% | 11.2 mV | 10.8 mV | 3.169 | 1475 kcps | 3.169 | 3.169 | 1475 | 3.169 | 10.8 |  |
| QCKAKAQANM | 0,01 | -1,83 | -1.835 | -1.83 | -1.835 | -1.835 |  | 35.27% | -4.641 mV | -8.36 mV | 2.31 | 204 kcps |  | 2.31 | 204.1 | 2.31 |  | Log Infectivity [1, 15]: -1.83; Inf. rel. EF-C ([1]; HIV-1 infection relative to EF-C, Fig 23 plot, panels A and B, mean of 3 values): 0.02465; Inf. rel. EF-C ([1]; HIV-1 infection relative to EF-C, Fig 23 plot, single data point, replicate 1): 0.03504; Inf. rel. EF-C ([1]; HIV-1 infection relative to EF-C, Fig 23 plot, single data point, replicate 2): 0.01727; Inf. rel. EF-C ([1]; HIV-1 infection relative to EF-C, Fig 23 plot, single data point, replicate 3): 0.02164; Abs. Inf. / RLU s-1 ([1]; absolute infection rate, peptide 1.3 µM on cells, virus preincubated 10 min with fibrils, read 3 days post infection, mean of triplicate): 563 RLU s-1; Abs. Inf. ([1]; absolute infection signal, HIV-1 on TZM-bl cells): 563.3; Inf. rel. EF-C ([1]; n-fold infection vs virus only, relative to that of EF-C, 1.3 µM peptide): 0.01; ß-sheet / % ([2]; ATR-FT-IR of lyophilised 1 mg/mL PNF solution, peak integral ratio 1625-1635 cm-1, measured once): 35%; Zeta-Pot. [3]: -8.357; Zeta pot. / mV ([3]; 1 mg/mL in PBS pH 7.4 from 10 mg/mL DMSO stock, 1 d RT, 60 µL diluted in 600 µL 1 mM KCl, Zetasizer Nano ZS, Smoluchowski, mean of triplicate): -8.4 mV; Log10 Count Rate ([4]; logarithm of count rate in kcps): 2.3; Log10 Count Rate ([4]; turbidity, log10 of derived count rate of scattered light): 2.31 |
